The source of these data is patent publication US20250332154A1, “USE OF NAPHTHOQUINE PHOSPHATE IN PREPARATION OF A MEDICAMENT FOR TREATING AUTOIMMUNE DISEASES” (SHANGHAI PHARMACEUTICALS INDUSTRY CO., LTD, priority 2022, published 2025).

Series [1] in a line: Non-specific cytotoxicity assay (MTT), purified mouse B cells. The conditions noted are these: BALB/c. In kind it is cell-based. Here is the method:
(§1) BALB/c mice were sacrificed by cervical dislocation, and spleens were aseptically excised to prepare spleen lymphocytes. The cells were adjusted to 1×10^8 cells/ml, blocked with 2.4G2 (final concentration: 10 μg/ml) for 20 min, cultured with PE-CD19 (final concentration: 5 μg/ml) for 20 min, washed with MACS buffer, centrifuged at 4° C., 300G for 10 min, 100 μl anti-PE beads were added per 1×10^8 cells, incubated with 900 μl MACS buffer for 15 min, washed with MACS buffer, centrifuged at 4° C., 300G for 10 min. The supernatant was discarded. 500 μl MACS buffer was added per 1×10^8 cells to resuspend the cells. MACS column was used for separation. Magnetically labeled cells were retained on the column. The MACS column was removed from the magnetic field and then eluted.
Hydroxychloroquine sulfate was diluted with a 2-fold gradient into 3 concentrations starting from 8 μM: 8, 4 and 2 μM. Naphthoquine phosphate was diluted with a 2-fold gradient into 3 concentrations starting from 0.5 μM: 0.5, 0.25, 0.125 μM. Purified mouse B cells were inoculated into a 96-well plate at 1×10^6/well, and gradient diluted compounds were added. A corresponding blank control and a cell control were set up. The cells were cultured in a 37° C., 5% CO2 incubator for 48 hours. […] The absorbance value was measured at 570 nm with a microplate reader (Spectra Max 190, Molecular Devices).

A short description of series [2]: Cytotoxicity (CC50) on mouse whole spleen lymphocytes, Example 3. In kind it is cell-based. Particulars: BALB/c; mouse whole spleen lymphocytes (Tables 3 and 4). Here is the method: (§2) BALB/c mice were sacrificed by cervical dislocation, and spleens were aseptically excised to prepare whole spleen lymphocytes. The cells were adjusted to 5×10^6 cells/ml. Hydroxychloroquine sulfate was diluted with a 3-fold gradient into 3 concentrations starting from 30 μM: 30, 10 and 3 μM; naphthoquine phosphate was diluted with a 3-fold gradient into 3 concentrations starting from 10 μM: 10, 3 and 1 μM.

Series [3] has as its system mouse whole spleen lymphocytes (ConA-induced T cell activation and proliferation). Description: ConA-induced lymphocyte proliferation assay (3H-thymidine). Particulars: for IC50: ConA 1 μg/ml, 48 hours, 3H-thymidine, read-out: ConA IC50. It is filed as cell-based. Here is the method:
BALB/c mice were sacrificed by cervical dislocation, and spleens were aseptically excised to prepare whole spleen lymphocytes. The cells were adjusted to the required concentration.
A suspension of mouse spleen lymphocytes was inoculated into a 96-well plate at 5×10^5/well, and ConA (final concentration: 1 μg/ml) or LPS (final concentration: 10 μg/ml) and the above 10 concentration gradients of the compound were added. Corresponding cell control wells without ConA and LPS, as well as medicament-free stimulated control wells, were set up. The cells were cultured in a 37° C., 5% CO2 incubator for 48 hours. Eight hours before the end of the culture, ^3H-thymidine was added, and the culture continued until the end of the experiment (i.e., the aforementioned 48 hours). The cells were collected onto glass fiber membranes using a cell collector.
ConA and LPS, as mitogens, stimulated proliferation and differentiation of T and B lymphocytes, respectively. This process is similar to the activation process of lymphocytes in vivo. Therefore, mitogen-induced lymphocyte proliferation is commonly used as an indicator to evaluate functionality of lymphocytes.

The subject of series [4] is TNF-α. Description: TNF-α production by LPS-induced RAW264.7 cells (ELISA). It is filed as cell-based, mouse. Particulars: for production of TNF-α: LPS-induced RAW264.7, in words; for IC50: Mus musculus, LPS 10 μg/ml, RAW264.7. How it is done: RAW264.7 cells were inoculated into a 96-well plate at 1×10^5/well and allowed to adhere to the wall for 6 hours in a 37° C., 5% CO2 incubator. […] After the cells adhered to the wall, the stimulant LPS (final concentration: 10 μg/ml) and the gradient-diluted compounds were added. A corresponding stimulation control and a cell control (without stimulation) were set up. After the end of the culture, the cell culture supernatants were collected, and the levels of TNF-α, IL-1β and IL-6 were measured by ELISA.
For orientation: In an ELISA, binding on a coated surface is turned into a signal by an enzyme label.

Series [5] has as its system IL-6. The series is described as follows: IL-6 secretion by TLRs-L-stimulated purified mouse B cells (ELISA). In kind it is cell-based. Particulars: B-cell, 48 h, stimulant TLR4-L 10 μg/ml. How it is done:
as §1
A suspension of purified mouse B cells was inoculated into a 96-well plate at 4×10^5/well. Hydroxychloroquine sulfate was diluted with a 2-fold gradient into 3 concentrations starting from 8 μM: 8, 4 and 2 μM. Naphthoquine phosphate was diluted with a 2-fold gradient into 3 concentrations 0.5 μM.: 0.5, 0.25 and 0.125 μM. […] After the end of the culture, the cell culture supernatants were collected, and the levels of TNF-α, IL-1β, and IL-6 were measured by ELISA.

Series [6] has as its system mouse whole spleen lymphocytes. Description: TLRs-L-stimulated proliferation of mouse whole spleen lymphocytes (3H-TdR). In kind it is cell-based. The conditions noted are these: for IC50: Mus musculus, Lymphocyte, 48 h. Here is the method: as §2
A suspension of mouse spleen lymphocytes was inoculated into a 96-well plate at […], and the stimulant TLR4-L (final concentration: 10 μg/ml), TLR7-L (final concentration: 5 μg/ml) or TLR9-L (final concentration: 1 μM) and compounds diluted with the above concentration gradients were added. A corresponding stimulation control and a cell control (without stimulation) were set up. The cells were cultured in a 37° C., 5% CO2 incubator for 48 hours. Eight hours before the end of culture, ^3H-TdR was added, and the culture continued until the end of the experiment. The cells were collected onto glass fiber membranes using a cell collector. 5 ml scintillation fluid was added, and the values of radioactive counts per minute were read on a Beta counter (2450 Microplate Counter, PerkinElmer).

Series [7] deals with IgM. Description: IgM secretion by TLRs-L-stimulated mouse whole spleen lymphocytes (ELISA). In kind it is cell-based. The conditions noted are these: Lymphocyte, 120 h. Here is the method:
as §2
(§3) Mouse spleen lymphocytes were inoculated into a 96-well plate at 100 μl/well, and the stimulant TLR4-L (final concentration: 10 μg/ml), TLR7-L (final concentration: 5 μg/ml) or TLR9-L (final concentration: 1 μM) and the compounds diluted with the above concentration gradients were added. A corresponding stimulation control and a cell control (without stimulation) were set up. The cells were cultured in a 37° C., 5% CO2 incubator for 120 hours. After the end of the culture, the cell culture supernatants were collected, and the levels of IgG and IgM were measured by ELISA.

The subject of series [8] is IgG. The series is described as follows: IgG secretion by TLRs-L-stimulated mouse whole spleen lymphocytes (ELISA). It is filed as cell-based. The conditions noted are these: Lymphocyte, 120 h. Here is the method: as §2, §3

As a reminder, the CC50 is the concentration giving 50% cytotoxicity. As usually defined, the IC50 is the midpoint of a concentration-inhibition curve.

Counter-ions that a name gives are not always drawn. Like-named read-outs stand apart in the source and are kept apart here. Some results are limits rather than exact numbers.

Take `CCN(CCO)CCCC(C)Nc1ccnc2cc(Cl)ccc12` (stereo not drawn) [Hydroxychloroquine Sulfate, hydroxychloroquine sulfate]: half-maximal cytotoxicity in series [1] (CC50 at 48 h) was put at 19.7 µM. In series [2], this compound displayed a cytotoxic concentration (CC50) of 26.9 µM. For the same compound, the IC50 is 17 µM in series [3] (listed as Hydroxychloroquine Sulfate (Zhongxi Sunve)); 17.1 µM in series [3] (Mus musculus, Lymphocyte); 46.3 µM in series [4]; over 8 µM in series [5]; 6.61 µM in series [6] (stimulant TLR4-L 10 μg/ml); 18.9 µM in series [6] (stimulant TLR7-L 5 μg/ml). In addition, the IC50 in series [6] (stimulant TLR9-L 1 μM) worked out at 8.79 µM; in series [7] (stimulant TLR4-L 10 μg/ml), 25.3 µM; in series [7] (stimulant TLR7-L 5 μg/ml) it was 19.2 µM; in series [7] (stimulant TLR9-L 1 μM), 2.51 µM; in series [8] (stimulant TLR4-L 10 μg/ml) it was 18.2 µM; in series [8] (stimulant TLR7-L 5 μg/ml) it was 26.9 µM. Inhibition in series [8] (stimulant TLR9-L 1 μM) was half-maximal at 5.63 µM (IC50). Moreover, the “production of TNF-α” value in series [4] is on record as “no significant effect”.

Turning to `CC(C)(C)NCc1cc(Nc2ccnc3cc(Cl)ccc23)c2c(c1O)CCCC2.O=P(O)(O)O.O=P(O)(O)O` [Naphthoquine Phosphate, Naphthoquine phosphate], in series [1], the CC50 at 48 h is 1.98 µM. For the same compound, in series [2], it took 1.59 µM to reach half-maximal cytotoxicity (CC50). Also, the half-inhibitory concentration (IC50) is 0.41 µM in series [3] (Mus musculus, Lymphocyte); over 10 µM in series [4]; 0.5 µM in series [5]; 0.129 µM in series [6] (stimulant TLR4-L 10 μg/ml); 1.05 µM in series [6] (stimulant TLR7-L 5 μg/ml); 0.218 µM in series [6] (stimulant TLR9-L 1 μM). Also, the IC50 turned out to be 0.845 µM in series [7] (stimulant TLR4-L 10 μg/ml), 2.03 µM in series [7] (stimulant TLR9-L 1 μM) and 0.325 µM in series [8] (stimulant TLR9-L 1 μM). For the same compound, the “effect on ConA-induced T cell activation and proliferation” value in series [3] (in words) is recorded as “significant inhibitory activity”. In series [4], the “production of TNF-α” value was “no significant effect”. The “proliferation and cytokine and antibody secretion mediated by specific TLRs-L” value in series [6] (mouse whole spleen lymphocytes, in words) is reported as “significantly inhibited”.
